Test results as given in US20190175671A1, “MICRORNA 22 REGULATORS COMPOSITIONS AND METHODS AND USES THEREOF” (priority 2017, published 2019).

How the values were obtained:
[1] = tested on: Interferon Regulatory Factor 9; conditions: cited from earlier work
[2] = tested on: microRNA 22; conditions: pancreatic cancer cells; cited from earlier work
[3] = tested on: MIR22HG; assay: Expression of long non-coding RNA MIR22HG

In the case of `CC(=O)Nc1ccc(O)cc1` [Acetaminophen], the “effect on IRF9” value [1] is listed as “inhibitor”.

For `COc1cc(/C=C/C(=O)CC(=O)/C=C/c2ccc(O)c(OC)c2)ccc1O` [curcumin, diferuloylmethane], the “expression of microRNA 22” value [2] is listed as “upregulation”.

For `CC(NCCC(c1ccccc1)c1ccccc1)c1ccccc1` (stereo not drawn) [Fendiline], the “expression of lncRNA MIR22HG” value [3] was “upregulates”.
